In US12065445B2, “CDK2 inhibitors and methods of using the same” (Cedilla Therapeutics, Inc., priority 2021, dated 2024):

Legend:
[1] = system: Kuramochi cells labeled with mApple-H2B; assay: IncuCyte Cell Proliferation Assay; assay type: cell-based; conditions: 72 h
Method in brief: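 GI50 came from dose-response fits of cell-count fold change between 0 and 72 h, normalized to DMSO controls. Counts were fluorescent nuclei from live-cell images over a 10-point, ½ log series starting at 20 μM.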

[2] = system: Kuramochi cells; assay: BrdU Cell Proliferation Assay; assay type: cell-based; conditions: read-out: BrdU - KURAMOCHI.1: IC50
Method in brief: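 Signal is 450 nm absorbance from a peroxidase anti-BrdU ELISA after a 1-hour BrdU label, background-subtracted and normalized to DMSO-treated wells. Kuramochi cells (2,000 per well) had been exposed to compound for 4 days. Dosing used a 10-point dose response in 3-fold steps.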

## C[C@@H](OCC1CCCCC1)[C@H](NC(=O)C1CN(C(=O)c2cnn(Cc3ccccc3)c2)CC12CN(C(=O)[C@H]1CC1(C)C)C2)C(=O)N1CCC(F)(F)CC1 (some centres unmarked) [I-149 mixture]
[1]
  IC50: ≤ 0.5 µM
[2]
  IC50: ≤ 0.5 µM

## Cc1ccc2[nH]c(CNC(=O)C3CN(C(=O)c4cnn(Cc5ccccc5)c4)CC34CN(C(=O)[C@H]3CC3(C)C)C4)nc2c1 (some centres unmarked) [I-278]
[1]
  IC50: > 20 µM
[2]
  IC50: > 10 µM

## C[C@@H](OCC1CCCCC1)[C@@H](COC(F)(F)F)NC(=O)[C@@H]1CN(C(=O)c2cnn(Cc3ccccc3)c2)CC12CN(C(=O)[C@H]1CC1(C)C)C2 [I-309]
[1]
  IC50: 0.5 to 5 µM
[2]
  IC50: 0.5 to 5 µM

## Cc1ccc(CNC(=O)[C@@H]2CN(C(=O)c3cnn(Cc4ccccc4)c3)CC23CN(C(=O)[C@H]2CC2(C)C)C3)nc1 [I-365]
[1]
  IC50: > 20 µM
[2]
  IC50: > 10 µM

## CC1(C)C[C@@H]1C(=O)N1CC2(CN(C(=O)c3cncs3)C[C@@H]2C(=O)N[C@@H](COCC2CCCCC2)C(=O)N2CCCCC2)C1 [I-293]
[1]
  IC50: > 20 µM
[2]
  IC50: > 10 µM

## C[C@@H](OCC1CCCCC1)[C@H](NC(=O)[C@@H]1CN(C(=O)c2cnn(Cc3ccccc3)c2)CC12CN(C(=O)[C@H]1CC1(C)C)C2)C(=O)N1CC(C)(C)C1 [I-153A]
[1]
  IC50: ≤ 0.5 µM
[2]
  IC50: ≤ 0.5 µM

## C[C@@H](OCC1CCCCC1)[C@H](NC(=O)[C@@H]1CN(C(=O)c2cnn(Cc3ccccc3)c2)CC12CN(C(=O)[C@H]1CC1(C)C)C2)C(=O)N1CCC(F)(F)CC1 [I-149A]
[1]
  IC50: ≤ 0.5 µM
[2]
  IC50: ≤ 0.5 µM

## CC1(C)C[C@@H]1C(=O)N1CC2(CN(C(=O)c3cnn(Cc4ccccc4)c3)C[C@@H]2C(=O)NCc2nnc[nH]2)C1 [I-191B]
[1]
  IC50: > 20 µM
[2]
  IC50: > 10 µM

## COC[C@H]1CCCN(C(=O)[C@@H](NC(=O)[C@@H]2CN(C(=O)c3cncs3)CC23CN(C(=O)[C@H]2CC2(C)C)C3)[C@@H](C)OCc2cccc(F)c2)C1 [I-322]
[1]
  IC50: 0.5 to 5 µM
[2]
  IC50: 0.5 to 5 µM

## CNC(=O)[C@@H](NC(=O)[C@@H]1CN(C(=O)c2cnc(C(C)(C)C)s2)CC12CN(C(=O)[C@H]1CC1(C)C)C2)[C@@H](C)OCC1CCCCC1 [I-229A]
[1]
  IC50: 0.5 to 5 µM
[2]
  IC50: 0.5 to 5 µM

## CC(O[C@H](C)[C@H](NC(=O)[C@@H]1CN(C(=O)c2cncs2)CC12CN(C(=O)[C@H]1CC1(C)C)C2)C(=O)N1CCC(F)(F)CC1)C1CCC(F)(F)CC1 (some centres unmarked) [I-361]
[1]
  IC50: 0.5 to 5 µM
[2]
  IC50: 0.5 to 5 µM

## COC[C@H]1CCCN(C(=O)[C@@H](NC(=O)[C@H]2CN(C(=O)c3cncs3)CC23CN(C(=O)[C@H]2CC2(C)C)C3)[C@@H](C)OCC2CCCCC2)C1 [I-196B]
[1]
  IC50: 0.5 to 5 µM
[2]
  IC50: ≤ 0.5 µM

## CN1CC[C@@H](NC(=O)[C@@H]2CN(C(=O)c3cnn(Cc4ccccc4)c3)CC23CN(C(=O)[C@H]2CC2(C)C)C3)C1=O [I-258]
[1]
  IC50: > 20 µM
[2]
  IC50: > 10 µM

## CNC(=O)[C@@H](NC(=O)[C@@H]1CN(C(=O)c2cncs2)CC12CN(C(=O)[C@H]1CC1(C)C)C2)[C@@H](C)OCC1CC2CCC1O2 (some centres unmarked) [I-462]
[1]
  IC50: > 20 µM
[2]
  IC50: > 10 µM

## C[C@@H](OCC1CCCCC1)[C@H](NC(=O)[C@@H]1CN(C(=O)c2cncs2)CC12CN(C(=O)[C@H]1CC1(F)F)C2)C(=O)N1CCCCC1 [I-296]
[1]
  IC50: 0.5 to 5 µM
[2]
  IC50: 0.5 to 5 µM

## C[C@@H](OCC1CCC(F)(F)CC1)[C@H](NC(=O)[C@@H]1CN(C(=O)c2cn[nH]c2)CC12CN(C(=O)C1(C(F)(F)F)CC1)C2)C(=O)N1CCOCC1 [I-302]
[1]
  IC50: > 20 µM
[2]
  IC50: > 10 µM

## CNC(=O)[C@@H](NC(=O)C1CN(C(=O)c2cnn(Cc3ccccc3)c2)CC12CN(C(=O)[C@H]1CC1(C)C)C2)[C@@H](C)OCc1ccccn1 (some centres unmarked) [I-257]
[1]
  IC50: > 20 µM
[2]
  IC50: > 10 µM

## CO[C@H]1COCC[C@@H]1NC(=O)[C@@H]1CN(C(=O)c2cnn(Cc3ccccc3)c2)CC12CN(C(=O)[C@H]1CC1(C)C)C2 [I-131A]
[1]
  IC50: > 20 µM
[2]
  IC50: > 10 µM

## CNC(=O)[C@@H](NC(=O)[C@@H]1CN(C(=O)c2cnc(Cl)s2)CC12CN(C(=O)[C@H]1CC1(C)C)C2)[C@@H](C)OCC1CCCCC1 [I-189A]
[1]
  IC50: 5 to 20 µM
[2]
  IC50: > 10 µM

## CC1(C)C[C@@H]1C(=O)N1CC2(CN(C(=O)c3cnn(Cc4ccccc4)c3)C[C@H]2C(=O)N[C@@H]2CCN(c3ccccc3)C2)C1 [I-207]
[1]
  IC50: 5 to 20 µM
[2]
  IC50: ≤ 0.5 µM

## CO[C@H](C)[C@H](NC(=O)[C@@H]1CN(C(=O)c2cnn(Cc3ccccc3)c2)CC12CN(C(=O)[C@H]1CC1(C)C)C2)C(=O)N1CCC(CN)CC1 [I-306]
[1]
  IC50: > 20 µM
[2]
  IC50: > 10 µM

## CNC(=O)[C@@H](NC(=O)[C@@H]1CN(C(=O)c2cncs2)CC12CN(C(=O)[C@H]1CC1(C)C)C2)[C@@H](C)OCC1CC2CCC1C2 (some centres unmarked) [I-465]
[1]
  IC50: ≤ 0.5 µM
[2]
  IC50: 0.5 to 5 µM

## COC[C@H]1CCCN(C(=O)[C@@H](C)NC(=O)[C@@H]2CN(C(=O)c3cncs3)CC23CN(C(=O)[C@H]2CC2(C)C)C3)C1 [I-324]
[1]
  IC50: > 20 µM
[2]
  IC50: > 10 µM

## CNC(=O)[C@@H](NC(=O)[C@@H]1CN(C(=O)c2cncs2)CC12CN(C(=O)[C@H]1CC1(C)C)C2)[C@@H](C)OCC12CCC(CC1)OC2 [I-342]
[1]
  IC50: 0.5 to 5 µM
[2]
  IC50: 0.5 to 5 µM

## Cc1ccc(C(C)NC(=O)[C@@H]2CN(C(=O)c3cnn(Cc4ccccc4)c3)CC23CN(C(=O)[C@H]2CC2(C)C)C3)nn1 (some centres unmarked) [I-366]
[1]
  IC50: 0.5 to 5 µM
[2]
  IC50: 0.5 to 5 µM

## CNC(=O)C(NC(=O)[C@@H]1CN(C(=O)c2cncs2)CC12CN(C(=O)[C@H]1CC1(C)C)C2)c1ncc(C2CCCCC2)o1 (some centres unmarked) [I-426]
[1]
  IC50: > 20 µM
[2]
  IC50: > 10 µM

## COC[C@H]1CCCN(C(=O)[C@@H](NC(=O)[C@@H]2CN(C(=O)c3cncs3)CC23CN(C(=O)[C@H]2CC2(C)C)C3)[C@@H](C)O[C@@H](C)C2CCCCC2)C1 [I-369]
[1]
  IC50: 0.5 to 5 µM
[2]
  IC50: 0.5 to 5 µM

## CNC(=O)C(NC(=O)[C@@H]1CN(C(=O)c2cncs2)CC12CN(C(=O)[C@H]1CC1(C)C)C2)c1cccc(N2CC3(CC(C(F)(F)F)C3)C2)n1 (some centres unmarked) [I-430]
[1]
  IC50: > 20 µM
[2]
  IC50: > 10 µM

## CNC(=O)[C@@H](NC(=O)[C@@H]1CN(C(=O)c2cnn(Cc3ccccc3)c2)CC12CN(C(=O)[C@H]1CC1(C)C)C2)[C@@H](C)OCc1ccc(Br)cc1 [I-263]
[1]
  IC50: 0.5 to 5 µM
[2]
  IC50: 0.5 to 5 µM

## CC1(C)C[C@@H]1C(=O)N1CC2(CN(C(=O)c3cnn(Cc4ccccc4)c3)C[C@H]2C(=O)NCc2ccc(Cl)nn2)C1 [I-376]
[1]
  IC50: > 20 µM
[2]
  IC50: > 10 µM

## Cc1cc(C(=O)N2CC(C(=O)N[C@H](C(=O)N3CCCCC3)[C@@H](C)OCC3CCCCC3)C3(C2)CN(C(=O)[C@H]2CC2(C)C)C3)[nH]n1 (some centres unmarked) [I-264]
[1]
  IC50: > 20 µM
[2]
  IC50: > 10 µM

## C[C@@H](OCC1CCCCC1)[C@H](NC(=O)[C@@H]1CN(C(=O)c2cnn(Cc3ccccc3)c2)CC12CN(C(=O)[C@H]1CC1(C)C)C2)C(C)(C)O [I-281]
[1]
  IC50: ≤ 0.5 µM
[2]
  IC50: 0.5 to 5 µM

## COC[C@H]1CCCN(C(=O)[C@@H](NC(=O)[C@@H]2CN(C(=O)c3cncs3)CC23CN(C(=O)[C@H]2CC2(C)C)C3)[C@@H](C)OC[C@H]2CC[C@H](OC)CC2)C1 [I-402]
[1]
  IC50: 0.5 to 5 µM
[2]
  IC50: 0.5 to 5 µM

## CC1(C)C[C@@H]1C(=O)N1CC2(CN(C(=O)c3cnn(Cc4ccccc4)c3)C[C@H]2C(=O)NCc2nnc[nH]2)C1 [I-191A]
[1]
  IC50: > 20 µM
[2]
  IC50: > 10 µM

## CNC(=O)[C@@H](NC(=O)[C@@H]1CN(C(=O)c2cnn(Cc3ccccc3)c2)CC12CN(C(=O)N(C)C1CC1)C2)[C@@H](C)OCC1CCCCC1 [I-295]
[1]
  IC50: 5 to 20 µM
[2]
  IC50: 5 to 10 µM

## CNC(=O)[C@@H](NC(=O)[C@@H]1CN(C(=O)c2cnn(Cc3ccccc3)c2)CC12CN(C(=O)[C@H]1CC1(C)C)C2)[C@@H](C)SCc1ccccc1 [I-368]
[1]
  IC50: 5 to 20 µM
[2]
  IC50: > 10 µM

## C[C@@H](OCC1CCCCC1)[C@@H](COCC1CCCCC1)NC(=O)[C@@H]1CN(C(=O)c2cncs2)CC12CN(C(=O)[C@H]1CC1(C)C)C2 [I-282]
[1]
  IC50: ≤ 0.5 µM
[2]
  IC50: ≤ 0.5 µM

## CNC(=O)[C@@H](CO)NC(=O)C1CN(C(=O)c2cnn(Cc3ccccc3)c2)CC12CN(C(=O)[C@H]1CC1(C)C)C2 (some centres unmarked) [I-261]
[1]
  IC50: > 20 µM
[2]
  IC50: > 10 µM

## COC[C@@H]1CCCN(C(=O)[C@@H](NC(=O)C2CN(C(=O)c3cncs3)CC23CN(C(=O)[C@H]2CC2(C)C)C3)[C@@H](C)OCC2CCCCC2)C1 (some centres unmarked) [I-195]
[1]
  IC50: ≤ 0.5 µM
[2]
  IC50: ≤ 0.5 µM

## C[C@@H](OCC1CCC(F)(F)CC1)[C@H](NC(=O)[C@@H]1CN(C(=O)c2cn[nH]c2)CC12CN(C(=O)[C@H]1CC1(C)C)C2)C(=O)N1CCC(F)(F)CC1 [I-228A]
[1]
  IC50: > 20 µM
[2]
  IC50: > 10 µM

## Cc1ccc(CNC(=O)[C@@H]2CN(C(=O)c3cnn(Cc4ccccc4)c3)CC23CN(C(=O)[C@H]2CC2(C)C)C3)cc1 [I-363]
[1]
  IC50: 5 to 20 µM
[2]
  IC50: 5 to 10 µM

## CNC(=O)C(NC(=O)[C@@H]1CN(C(=O)c2cncs2)CC12CN(C(=O)[C@H]1CC1(C)C)C2)c1nc(C2CCCCC2)co1 (some centres unmarked) [I-425]
[1]
  IC50: > 20 µM
[2]
  IC50: > 10 µM

## CNC(=O)[C@@H](NC(=O)[C@@H]1CN(Cc2cncs2)CC12CN(C(=O)[C@H]1CC1(C)C)C2)[C@@H](C)OCc1ccccc1 [I-51A]
[1]
  IC50: 5 to 20 µM
[2]
  IC50: 5 to 10 µM

## C[C@@H](OCc1ccccc1)[C@H](NC(=O)C1CN(C(=O)c2cnn(Cc3ccccc3)c2)CC12CN(C(=O)[C@H]1CC1(C)C)C2)C(=O)N1CCCCC1 (stereo partly drawn) [I-97, 6-(1-benzyl-1H-pyrazole-4-carbonyl)-N-((2S,3R)-3-(benzyloxy)-1-oxo-1-(piperidin-1-yl)butan-2-yl)-2-((S)-2,2-dimethylcyclopropanecarbonyl)-2,6-diazaspiro[3.4]octane-8-carboxamide]
[1]
  IC50: 0.5 to 5 µM
[2]
  IC50: 0.5 to 5 µM

## CC1(C)C[C@@H]1C(=O)N1CC2(CN(C(=O)c3cncs3)C[C@H]2C(=O)NC(c2cccc(C3CCCCC3)n2)P(C)(C)=O)C1 (some centres unmarked) [I-494]
[1]
  IC50: > 20 µM
[2]
  IC50: > 10 µM

## C[C@@H](OCC1CCCCC1)[C@H](NC(=O)[C@@H]1CN(C(=O)c2cn[nH]c2)CC12CN(C(=O)[C@H]1CC1(C)C)C2)C(=O)N1CCC(F)(F)CC1 [I-154A]
[1]
  IC50: 0.5 to 5 µM
[2]
  IC50: 0.5 to 5 µM
